Data published in patent US5599548A, “Skin care compositions containing fatty acid amides and retinol or retinyl ester” (priority 1995, dated 1997).
Read-outs that look alike come from different tables or passages of the source.

Experiments:
Human keratinocytes = assay: 3H-Thymidine incorporation (keratinocyte proliferation); type: cell-based; settings: for activity at 0.25 µM / activity at 0.025 µM / activity at 0.0025 µM: Homo sapiens, Keratinocyte; for activity at 0.25 µM / mean Thymidine incorp./μg protein ± s.d: 2.5 × 10^-7 M; for activity at 0.0025 µM: 2.5 × 10^-9 M; for effect on keratinocyte proliferation, in words: concentrations as in the respective Example
Experimental: (§1) Human keratinocytes, isolated from neonatal foreskin by trypsin treatment were grown in Dulbecco Modification Eagle (DME) Hams F12 (1:1) medium/10% fetal calf serum in the presence of irradiated 3T3 mouse fibroblasts for establishing dividing keratinocyte colonies. Cells were grown under the above condition until their second passage and kept frozen for future use. […] On day 7, when the cells were 80-90% confluent, they were trypsinized and plated in the serum-free medium for the various experiments.
The incorporation of […] by cultured keratinocytes was used as an assay of keratinocyte proliferation. Thymidine is one of four deoxynucleosides which are the monomeric units of DNA, the universal library of genetic information in the animal kingdom. Prior to cell division of a somatic cell such as a keratinocyte, the complete genome of the cell undergoing cell division is replicated. This involves large scale DNA synthesis by the cell and enables both daughter cells to receive identical copies of the genetic material. When ^3 H-thymidine is included in the culture media of keratinocytes which are synthesizing DNA in preparation for cell division then the labelled nucleoside is incorporated into the newly synthesized DNA. The extent of incorporation of ^3 H-thymidine into a population of cells is proportional to the rate of DNA synthesis by this population of cells and therefore an indication of their cellular proliferation.
Keratinocytes (that were cultured as described above) were plated in 24 well plates at a density of 40,000 cells per well in 1 ml media. After incubation for four days or until the cells were 60-70% confluent, the media was changed. Test compounds were added (in triplicate) to the wells 24 hours after the media change, and four hours later 1μCi^3 H-Thymidine in 50 μl media was added per well. Cells were incubated for a further 24 hours. Media was removed from the cells, 10% ice cold trichloroacetic acid (TCA) added and plates were incubated on ice for 30 minutes. Cells were washed five times with 5% TCA and allowed to dissolve in 500 μl 0.1M NaOH for at least one hour (usually overnight). The preparations were neutralized with 0.1M HCl; 50 μl of the cell preparation was used to determine total protein content. Disintegrations per minute (DPM) from ^3 H labelling of DNA was determined by liquid scintillation counting of […] of the cell preparation. Thymidine incorporation results were expressed as DPM/μg protein.

[1] = tested on: TGase I (keratinocyte transglutaminase level); assay: Transglutaminase (TGase I) ELISA assay (keratinocyte differentiation); type: cell-based, human; settings: for effect on keratinocyte TG1 levels / differentiation, in words: concentrations as in the respective Example
Experimental: as §1
During the process of terminal differentiation in the epidermis, a 15 nm thick layer of protein, known as the cornified envelope (CE) is formed on the inner surface of the cell periphery. The CE is composed of numerous distinct proteins which have been cross-linked together by the formation of N^ε -(γ-glutamyl) lysine isodipeptide bonds catalyzed by the action of at least two different transglutaminases (TGases) expressed in the epidermis. TGase I is expressed in abundance in the differentiated layers of the epidermis, especially the granular layer, but is absent in the undifferentiated basal epidermis. Thus TGase I is a useful marker of epidermal keratinocyte differentiation with high TGase I levels indicating a more differentiated state. An ELISA based TGase I assay, using a TGase I antibody, was used to assess the state of differentiation of the cultured keratinocytes in the examples that follow.
Keratinocytes (cultured as described above) were plated in 96 well plates at a density of 3,000 cells per well in 200 μl media. After incubation for four days the media was changed to media containing test compounds (six replicates per test). The cells were cultured for a further 72 hours after which time the media was aspirated and the plates stored at -70° C. Plates were removed from the freezer, and the cells washed with PBS. 100 μl sterile water was added and the cells were freeze fractured by freezing at -70° C. then thawing. The cells were incubated for one hour at room temperature (R/T) with PBS/3% BSA (wash buffer, bovine serum albumin), then rinsed with a fresh aliquot of wash buffer. Cells were incubated with 50 μl of primary antibodies monoclonal anti-human transglutaminase (IgG) obtained from Amersham (mouse) diluted 1:300 in wash buffer for one hour, 37° C. then rinsed two times with wash buffer. Cells were then incubated with 50 μl of secondary antibody (Feb fragment, peroxidase conjugated anti-mouse IgG obtaining from Amersham) diluted 1:200 in wash buffer for one hour at 37° C., then rinsed two times with wash buffer. Cells were incubated with substrate solution (4 mg o-phenylene diamine and 3.3 μl 30% H2 O2 in 10 ml 0.1M citrate buffer pH 5.0) for five minutes, R/T, in darkness (under aluminum foil). The reaction was stopped by the addition of 50 μl 4N H2 SO4. The absorbance of samples was read at 492 nm in the plate reader. Out of the six replicates, four were treated with both antibodies, two were treated only with the secondary antibody (i.e., to determine background binding of enzyme conjugated Ab). TGase levels were determined by subtracting background from the readings from each treatment and determining mean ±s.d. for the replicates exposed to both Ab.

[2] = 24 h, Table 7A, 24 h, n = 9, read-out: mean Thymidine incorp/μg protein ± s.d
[3] = 24 h, Table 7A, 24 h, n = 9, read-out: thymidine incorporation, % control

Structure (SMILES): CC1=C(/C=C/C(C)=C/C=C/C(C)=C/CO)C(C)(C)CCC1 [ROH, retinol]
- activity at 0.25 µM (Human keratinocytes; 24 h, Table 1A, first RA/ROH pair, 24 h, n = 3, read-out: thymidine incorporation, % control): 106%
- activity at 0.25 µM (Human keratinocytes; 24 h, Table 1A, second RA/ROH pair, 24 h, n = 3, read-out: thymidine incorporation, % control): 97%
- activity at 0.25 µM (Human keratinocytes; 24 h, Table 1A, third RA/ROH pair, 24 h, n = 3, read-out: thymidine incorporation, % control): 94%
- activity at 0.025 µM (Human keratinocytes; 24 h, Table 2A, RA, ROH 2.5 × 10^-8 M, linoleoyl-DEA 10^-9 M, alone or combined, 24 h, n = 9, read-out: thymidine incorporation, % control): 102%
- activity at 0.025 µM (Human keratinocytes; 24 h, Table 2A, RA, ROH 2.5 × 10^-8 M, linoleoyl-DEA 10^-9 M, alone or combined, 24 h, normalized to ethanol control, n = 9, read-out: mean Thymidine incorp./μg protein ± s.d): 102 ± 15.2%
- activity at 0.025 µM (Human keratinocytes; 24 h, Table 4C, RA, retinol 2.5 × 10^-8 M, palmitoyl-MEA 10^-6 M, alone or combined, n = 3, read-out: thymidine incorporation, % control): 101%
- activity at 0.025 µM (Human keratinocytes; 24 h, Table 4D, RA, ROH 2.5 × 10^-8 M, linoleoyl-MEA 10^-9 M, alone or combined, 24 h, n = 3, read-out: thymidine incorporation, % control): 106%
- activity at 0.025 µM (Human keratinocytes; 24 h, Table 4D, RA, ROH 2.5 × 10^-8 M, linoleoyl-MEA 10^-9 M, alone or combined, 24 h, normalized to ethanol control, n = 3, read-out: mean Thymidine incorp./μg protein ± s.d): 106 ± 27%
- activity at 0.25 µM (Human keratinocytes; [2]): 102 ± 16.5%
- activity at 0.25 µM (Human keratinocytes; [3]): 102%
- activity at 0.025 µM (Human keratinocytes; 24 h, Table 7A, 2.5 × 10^-8 M, 24 h, n = 9, read-out: mean Thymidine incorp/μg protein ± s.d): 101 ± 15.2%
- activity at 0.025 µM (Human keratinocytes; 24 h, Table 7A, 2.5 × 10^-8 M, 24 h, n = 9, read-out: thymidine incorporation, % control): 101%
- activity at 0.0025 µM (Human keratinocytes; [2]): 99.5 ± 12.3%
- activity at 0.0025 µM (Human keratinocytes; [3]): 100%
- activity at 0.025 µM (Human keratinocytes; Table 4C, RA, retinol 2.5 × 10^-8 M, palmitoyl-MEA 10^-6 M, alone or combined, control = 1.000, n = 3, read-out: mean Thymidine incorp./μg protein ± s.d): 101 ± 8.8%
- mean Thymidine incorp./μg protein ± s.d (Human keratinocytes; Table 1A, first RA/ROH pair, 24 h, n = 3): 2218 ± 73 DPM/μg protein
- mean Thymidine incorp./μg protein ± s.d (Human keratinocytes; Table 1A, second RA/ROH pair, 24 h, n = 3): 2034 ± 46 DPM/μg protein
- mean Thymidine incorp./μg protein ± s.d (Human keratinocytes; Table 1A, third RA/ROH pair, 24 h, n = 3): 1977 ± 19 DPM/μg protein
- effect on keratinocyte proliferation, in words (Human keratinocytes): minor, non-significant stimulatory effect on keratinocyte proliferation
- effect on keratinocyte proliferation, in words (Human keratinocytes; listed as Retinol): completely ineffective at increasing keratinocyte proliferation
- effect on keratinocyte proliferation, in words (Human keratinocytes; listed as retinol): Neither 10^-8 M palmitoyl-MEA nor 2.5×10^-8 M retinol had an effect on keratinocyte proliferation
- activity at 0.25 µM ([1]; Homo sapiens, Keratinocyte, 72 h, Table 1B, 2.5 × 10^-7 M, 72 h, n = 3, read-out: Transglutaminase level, % control): 67%
- activity at 0.025 µM ([1]; Homo sapiens, Keratinocyte, 72 h, Table 1B, 2.5 × 10^-8 M, 72 h, n = 3, read-out: Transglutaminase level, % control): 86%
- activity at 0.0025 µM ([1]; Homo sapiens, Keratinocyte, 72 h, Table 1B, 2.5 × 10^-9 M, 72 h, n = 3, read-out: Transglutaminase level, % control): 97%
- activity at 0.25 µM ([1]; Homo sapiens, Keratinocyte, 72 h, Table 2B, RA, ROH 2.5 × 10^-7 M, linoleoyl-DEA 10^-6 M, alone or combined, 72 h, n = 9, read-out: TGase (TG1) level, % control): 59%
- activity at 0.25 µM ([1]; Homo sapiens, Keratinocyte, 72 h, Table 6A, RA, ROH 2.5 × 10^-7 M, formamide 10^-7 M, alone or combined, 72 h, n = 3, read-out: TGase (TG1) level, % control): 71%
- activity at 0.25 µM ([1]; Homo sapiens, Keratinocyte, 72 h, Table 6B, RA, ROH 2.5 × 10^-7 M, acetamide 10^-7 M, alone or combined, 72 h, n = 3, read-out: TGase (TG1) level, % control): 65%
- activity at 0.25 µM ([1]; Homo sapiens, Keratinocyte, 72 h, Table 6C, RA, ROH 2.5 × 10^-7 M, pentanoyl-DEA 10^-7 M, alone or combined, 72 h, n = 3, read-out: TGase (TG1) level, % control): 67%
- activity at 0.25 µM ([1]; Homo sapiens, Keratinocyte, Table 4A, RA, retinol 2.5 × 10^-7 M, cocoyl-DEA 10^-7 M, alone or combined, n = 3, read-out: TGase (TG1) level, % control): 82%
- activity at 0.025 µM ([1]; Homo sapiens, Keratinocyte, Table 4B, RA, retinol 2.5 × 10^-8 M, cocoyl-MEA 10^-8 M, alone or combined, n = 3, read-out: TGase (TG1) level, % control): 44%
- activity at 0.25 µM ([1]; Homo sapiens, Keratinocyte, Table 5A, RA, retinol 2.5 × 10^-7 M, linoleic acid 10^-6 M, alone or combined, n = 3, read-out: TGase (TG1) level, % control): 39%
- activity at 0.025 µM ([1]; Homo sapiens, Keratinocyte, Table 5B, RA, retinol 2.5 × 10^-8 M, methyl linoleate 10^-8 M, alone or combined, n = 3, read-out: TGase (TG1) level, % control): 69%
- mean Transglutaminase ELISA level ± s.d ([1]; Table 1B, 2.5 × 10^-7 M, 72 h, n = 3): 0.290 ± 0.043
- mean Transglutaminase ELISA level ± s.d ([1]; Table 1B, 2.5 × 10^-8 M, 72 h, n = 3): 0.371 ± 0.054
- mean Transglutaminase ELISA level ± s.d ([1]; Table 1B, 2.5 × 10^-9 M, 72 h, n = 3): 0.416 ± 0.035
- mean TGase ± s.d ([1]; Table 2B, RA, ROH 2.5 × 10^-7 M, linoleoyl-DEA 10^-6 M, alone or combined, 72 h, normalized to ethanol control, n = 9): 0.594 ± 0.542
- mean TGase ± s.d ([1]; Table 4A, RA, retinol 2.5 × 10^-7 M, cocoyl-DEA 10^-7 M, alone or combined, n = 3): 0.145 ± 0.070
- mean TGase ± s.d ([1]; Table 4B, RA, retinol 2.5 × 10^-8 M, cocoyl-MEA 10^-8 M, alone or combined, n = 3): 0.054 ± 0.013
- mean TGase ± s.d ([1]; Table 5A, RA, retinol 2.5 × 10^-7 M, linoleic acid 10^-6 M, alone or combined, n = 3): 0.042 ± 0.112
- mean TGase ± s.d ([1]; Table 5B, RA, retinol 2.5 × 10^-8 M, methyl linoleate 10^-8 M, alone or combined, n = 3): 0.199 ± 0.093
- mean TGase level ± s.d ([1]; Table 6A (Effect on Keratinocyte TGase), RA, ROH 2.5 × 10^-7 M, formamide 10^-7 M, alone or combined, 72 h, n = 3): 0.351 ± 0.046
- mean TGase level ± s.d ([1]; Table 6B (Effect on Keratinocyte TGase), RA, ROH 2.5 × 10^-7 M, acetamide 10^-7 M, alone or combined, 72 h, n = 3): 0.317 ± 0.043
- mean TGase level ± s.d ([1]; Table 6C (Effect on Keratinocyte TGase), RA, ROH 2.5 × 10^-7 M, pentanoyl-DEA 10^-7 M, alone or combined, 72 h, n = 3): 0.290 ± 0.043
- effect on keratinocyte TG1 levels / differentiation, in words ([1]; listed as Retinol): significantly less effective than retinoic acid at inhibiting keratinocyte differentiation
- effect on keratinocyte TG1 levels / differentiation, in words ([1]; listed as retinol): decrease in transglutaminase level was dose dependent
